Results on three molecules are retold here after patent publication US11718645B2, “Macrocyclic therapeutic agents, methods of manufacture, and methods of treatment” (University of Florida Research Foundation, Incorporated, priority 2014, dated 2023).

Data set [1] can be described thus: Cellular stability in HCT116 cell lysate. In kind it is in vitro ADME, human. The following applies: HCT116 protein lysate 0.7 mg/mL, up to 24 h, FIG. 2D. Here is the method: Aliquots of HCT116 cell lysates were diluted with 25 mM Tris-HCl buffer, pH 8.0, to give a final reaction volume of 100 μL and protein concentration of 0.7 mg/mL. Cell lysate solutions were incubated with 10 μL of apratoxin A, BK, BL, BM, or BN (25 μg/mL) for 0.25 min to 24 h (nine time points). Remaining apratoxin A, BK, BL, BM, or BN were extracted from the reaction solution at the end of the incubation periods with ethyl acetate using the same procedure as described for the plasma stability assay.
(§1) Analysis of apratoxin A, S4 (BK), S7 (BL), S8 (BM) and S9 (BN) was done by using HPLC-MS [column, Onyx Monolithic C18 (3.0×100 mm), Phenomenex (Torrance, Calif.); solvent, water (solvent A) acetonitrile (solvent B); flow rate, 0.5 ml/min; detection by electrospray ionization-MS in positive ion mode (MRM scan)]. A stepwise gradient elution was used starting at 60% B and 40% A, then increasing to 80% B at 5 min and maintained at this condition for 5 min. Parameters were optimized before analysis by using direct syringe infusion. The retention times (tR, min; MRM ion pair) of the analytes and internal standard are as follows: harmine (2.2; 213.1→169.9), apratoxin A (4.7; 841.4→445.2), apratoxin S4 (BK) (4.1; 828.5→432.2), apratoxin S7 (BL) (4.05; 814.5→418.2), apratoxin S8 (BM) (5.2; 842.5→446.2), apratoxin S9 (BN) (4.9; 828.5→432.2). Compound-dependent parameters used were as follows: apratoxin A, declustering potential (DP) 51, entrance potential (EP) 12, collision energy (CE) 45, collision cell exit potential (CXP) 6, collision cell entrance potential (CEP) 32; and harmine, DP 56.0, EP 4.5, CE 44.0, CXP 5, CEP 16.0. Source gas parameters used were as follows: curtain gas, 15.0; collision gas low, ionspray voltage 5500; temperature, 600.0; ion source gas 150.0; ion source gas 2 60.0.
(§2) Calibration curves for apratoxin A, S4 (BK), S7 (BL), S8 (BM) and S9 (BN) in the presence of mouse serum, HCT116 cell lysates, and aqueous solutions were generated by least-square linear regression analysis of the analyte peak area and internal standard peak area ratio against the nominal concentration of the standard solutions. A linear regression analysis was performed, and the concentration of remaining apratoxins at each time point was determined through interpolation for plasma, cellular, and aqueous stability experiments. The amount of remaining apratoxins with microsome incubation was determined from the peak area ratio of apratoxins at tx (3 min to 3 h) and t0. All calculations were done by using Analyst 1.4.2 (Applied Biosystems) Quantitate Mode.

A short description of data set [2]: Plasma stability in mouse serum. The following applies: up to 24 h, FIG. 2C. The format is in vitro ADME. The method, then:
In vitro plasma stability of apratoxin A, S4 (BK), S7 (BL), S8 (BM) and S9 (BN) was done by using a modification of a published method [Chen, X.; Gardner, E. R.; Figg, W. D. J. Chromatogr. B Analyt. Technol. Biomed. Life Sci. 2008, 86, 153-158]. Ten microliters of apratoxin A, BK, BL, BM, or BN (25 μg/mL) were added to 100 μL of mouse serum, and the solution was vortex-mixed for 15 s and incubated for 0.25 min to 24 h (11 time points). At the end of each incubation period, 400 μL of ethyl acetate was added to each tube, followed by 200 μL of harmine to quench the reaction and to extract the remaining apratoxin A or S4 (BK), S7 (BL), S8 (BM) and S9 (BN). Samples were further incubated in a thermomixer at 27° C. (750 rpm, 5 min) and later centrifuged for 5 min at 1643 g. The ethyl acetate layer was collected and evaporated to dryness under nitrogen. Samples were reconstituted in 50 μL of acetonitrile. A volume of 10 μL of the reconstituted solution was injected into the HPLC-MS system.
as §1, with “Compound-dependent parameters used were as follows: apratoxin A, declustering potential (DP) 51, entrance potential (EP) 12, collision energy (CE) 45, collision cell exit potential (CXP) 6, collision cell entrance potential (CEP) 32; and harmine, DP 56.0, EP 4.5, CE 44.0, CXP 5, CEP 16.0. Source gas parameters used were as follows: curtain gas, 15.0; collision gas low, ionspray voltage 5500; temperature, 600.0; ion source gas 150.0; ion source gas 2 60.0.” left out
as §2

For data set [3], the system named is HCT116 xenograft. Put plainly: In vivo efficacy, HCT116 xenograft mouse model. Here is the method: 3-5 week old female nude mice (nu/nu) were obtained from Charles River Laboratory (Wilmington, Mass.). 1×10^6 HCT116 cells in a volume of 100 μL of sterile saline were injected subcutaneously on the left rear flank of a nude mouse to establish tumors. Tumor dimensions were measured using calipers every day and tumor volumes were calculated using the formula W^2×L×0.5, where width (W)≤length (L). Tumors with a starting volume bigger than 100 mm^3 were excluded from the analysis. Mice were injected intraperitoneally with the doses of 2 μg/mouse (0.1 mg/kg), 5 μg/mouse (0.25 mg/kg) of apratoxin S8 (BM) or solvent (DMSO) control every day until the tumor size in one dimension reached 15 mm and tumor tissue was harvested on the following day. 50 mg of tumor tissue was sonicated in PhosphoSafe lysis buffer (EMD chemicals, Inc) and used for immunoblot analysis described as the above. All studies were carried out under the protocol approved by the Institutional Animal Care and Use Committee at the University of Florida.

As to `CC[C@H](C)[C@H]1C(=O)N2CCC[C@@H]2C(=O)O[C@H](C(C)(C)C)C[C@@H](C)C[C@H](O)CC2=N[C@@H](CCC(=O)N[C@@H](Cc3ccc(OC)cc3)C(=O)N(C)[C@@H](C)C(=O)N1C)CS2` [apratoxin S7 (BL), Apratoxin S7], in data set [1], the cellular stability entry was “excellent”. Further, the plasma stability entry in data set [2] was “excellent”.
As for `CC[C@H](C)[C@H]1C(=O)N2CCC[C@@H]2C(=O)O[C@H](C(C)(C)C)C[C@@H](C)C[C@H](O)C(C)(C)C2=N[C@@H](CCC(=O)N[C@@H](Cc3ccc(OC)cc3)C(=O)N(C)[C@@H](C)C(=O)N1C)CS2` [apratoxin S8 (BM), Apratoxin S8], the “dose dependence of tumor growth inhibition” value in data set [3] (0.1 and 0.25 mg/kg daily i.p.) was “clear dose-dependent tumor growth inhibition”. The “signs of toxicity (weight loss, abnormal behavior)” value in data set [3] (0.1 and 0.25 mg/kg daily i.p., nude mice) is reported as “did not observe signs of toxicity”. Also, in data set [3] (higher dose 0.25 mg/kg daily i.p., about 2 weeks), the “effect on tumor growth” value was “strongly retarded the tumor growth”. Besides, the tumor growth inhibition result in data set [3] (lower dose 0.1 mg/kg daily i.p., about 2 weeks) is reported as “about 50%”. In addition, the cellular stability entry in data set [1] is given as “excellent”. Besides, the plasma stability result in data set [2] is “excellent”.
Regarding `CC[C@H](C)[C@H]1C(=O)N2CCC[C@@H]2C(=O)O[C@H](C(C)(C)C)C[C@@H](C)C[C@H](O)[C@H](C)C2=N[C@H](CCC(=O)N[C@@H](Cc3ccc(OC)cc3)C(=O)N(C)[C@@H](C)C(=O)N1C)CS2` [apratoxin S9 (BN), Apratoxin S9], in data set [1], the cellular stability entry is “excellent”. Moreover, in data set [2], the plasma stability entry is listed as “excellent”.
